Active and inactive are the calls of the source. The calls are words filed in the database; no cut-off is given here.

Data set [1] can be described thus: Cytotoxicity against HMC1 cells at 6.25 to 50 uM after 24 hrs by MTT assay. In kind it is cell-based. As to conditions: human, hmc1, 24 h. On the technique in general: Tetrazolium dyes change colour on reduction, which living cells bring about.
Data set [2] is described as follows: Effect on Akt level in HMC1 cells at 12.5 to 50 uM pretreated for 30 mins followed by addition of PMACI incubated for 5 mins by Western blot analysis. As to conditions: human, hmc1, 5 min. Format: ADME, cell-based. On the technique in general: Immunoblotting shows a protein as a band on a membrane.
Data set [3] can be described thus: Effect on IKKalpha/beta level in HMC1 cells at 12.5 to 50 uM pretreated for 30 mins followed by addition of PMACI incubated for 15 mins by Western blot analysis. Format: ADME, cell-based. As to conditions: human, hmc1, 0.25 h.
Data set [4] is described as follows: Effect on ERK level in HMC1 cells at 12.5 to 50 uM pretreated for 30 mins followed by addition of PMACI incubated for 15 mins by Western blot analysis. The settings on record: human, hmc1, 0.25 h. Format: cell-based.
Data set [5] in a line: Effect on JNK level in HMC1 cells at 12.5 to 50 uM pretreated for 30 mins followed by addition of PMACI incubated for 15 mins by Western blot analysis. Format: cell-based. As to conditions: human, hmc1, 0.25 h.
Data set [6] in a line: Effect on p38 level in HMC1 cells at 12.5 to 50 uM pretreated for 30 mins followed by addition of PMACI incubated for 15 mins by Western blot analysis. In kind it is ADME, cell-based. As to conditions: human, hmc1, 0.25 h.
The subject of data set [7] is Mus musculus. Nature of the data set: Antiinflammatory activity in ICR male mouse assessed as reduction in compound 48/80-induced mortality rate at 20 mg/kg, ip dosed 1 hr prior to anaphylactic shock measured for 1 hr.
Data set [8] concerns HMC1. Nature of the data set: Inhibition of PMACI-induced phosphorylation of ERK in HMC1 cells at 12.5 to 50 uM pretreated for 30 mins followed by addition of PMACI incubated for 15 mins by Western blot analysis. The settings on record: Homo sapiens.
The target in data set [9] is c-Jun N-terminal kinase, JNK (Homo sapiens) (UniProt P45983+P53779+P45984). Nature of the data set: Inhibition of PMACI-induced phosphorylation of JNK in HMC1 cells at 12.5 to 50 uM pretreated for 30 mins followed by addition of PMACI incubated for 15 mins by Western blot analysis.
Data set [10] deals with MAP kinase p38 (Homo sapiens) (UniProt O15264+Q15759+Q16539+P53778). Nature of the data set: Inhibition of PMACI-induced phosphorylation of p38 in HMC1 cells at 12.5 to 50 uM pretreated for 30 mins followed by addition of PMACI incubated for 15 mins by Western blot analysis.
The target in data set [11] is T1, NF-kappa-B inhibitor alpha (Homo sapiens) (UniProt P25963).
T1 sequence (whole entry): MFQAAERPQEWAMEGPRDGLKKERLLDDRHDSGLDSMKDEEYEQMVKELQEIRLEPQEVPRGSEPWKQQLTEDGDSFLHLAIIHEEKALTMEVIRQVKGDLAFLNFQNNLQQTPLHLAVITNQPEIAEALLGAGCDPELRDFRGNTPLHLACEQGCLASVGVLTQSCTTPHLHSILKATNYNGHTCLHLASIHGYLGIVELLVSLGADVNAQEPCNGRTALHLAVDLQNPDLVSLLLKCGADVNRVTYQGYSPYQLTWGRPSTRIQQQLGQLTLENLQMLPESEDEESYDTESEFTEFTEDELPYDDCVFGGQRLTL
Description: Inhibition of PMACI-induced degradation of IkappaB-alpha in HMC1 cells at 12.5 to 50 uM pretreated for 30 mins followed by addition of PMACI incubated for 15 mins by Western blot analysis.

The test system of data set [12] is Mus musculus. Nature of the data set: Antiinflammatory activity in ICR male mouse assessed as reduction in compound 48/80-induced serum histamine level at 20 mg/kg, ip dosed 1 hr prior to anaphylactic shock by enzymeimmunoassay.
Data set [13] has as its target RAC-alpha serine/threonine-protein kinase (Homo sapiens) (UniProt P31749). Nature of the data set: Inhibition of PMACI-induced phosphorylation of Akt at […] in HMC1 cells at 12.5 to 50 uM pretreated for 30 mins followed by addition of PMACI incubated for 5 mins by Western blot analysis.
Data set [14] has as its target Inhibitor of NF-kappa-B kinase alpha/beta (Homo sapiens) (UniProt O14920+O15111). Nature of the data set: Inhibition of PMACI-induced phosphorylation of IKKalpha/beta in HMC1 cells at 12.5 to 50 uM pretreated for 30 mins followed by addition of PMACI incubated for 15 mins by Western blot analysis.
The target in data set [15] is T1, NF-kappa-B inhibitor alpha (Homo sapiens). Description: Inhibition of PMACI-induced phosphorylation of IkappaB-alpha in HMC1 cells at 12.5 to 50 uM pretreated for 30 mins followed by addition of PMACI incubated for 15 mins by Western blot analysis.
Data set [16] relates to HMC1. Nature of the data set: Antiinflammatory activity in HMC1 cells assessed as suppression of PMACI-induced IL-6 production pretreated for 30 mins followed by addition of PMACI incubated for 24 hrs by enzyme immunoassay. As to conditions: Homo sapiens.
For data set [17], the system named is HMC1. Description: Antiinflammatory activity in HMC1 cells assessed as suppression of pro-caspase-1 degradation pretreated for 30 mins followed by addition of PMACI incubated for 15 mins by Western blot analysis. As to conditions: Homo sapiens.
Data set [18] concerns HMC1. Description: Antiinflammatory activity in HMC1 cells assessed as suppression of PMACI-induced IL-6 mRNA expression pretreated for 30 mins followed by addition of PMACI incubated for 6 hrs by qRT-PCR analysis. The settings on record: Homo sapiens. (Quantitative PCR measures a nucleic acid by following its amplification.)
Data set [19] concerns HMC1. Description: Antiinflammatory activity in HMC1 cells assessed as suppression of PMACI-induced IL-1beta production pretreated for 30 mins followed by addition of PMACI incubated for 24 hrs by enzyme immunoassay. As to conditions: Homo sapiens.
For data set [20], the system named is HMC1. Description: Antiinflammatory activity in HMC1 cells assessed as suppression of PMACI-induced TNF-alpha production pretreated for 30 mins followed by addition of PMACI incubated for 24 hrs by enzyme immunoassay. As to conditions: Homo sapiens.
For data set [21], the system named is HMC1. Description: Antiinflammatory activity in HMC1 cells assessed as suppression of PMACI-induced IL-1beta mRNA expression pretreated for 30 mins followed by addition of PMACI incubated for 6 hrs by qRT-PCR analysis. The settings on record: Homo sapiens.
The subject of data set [22] is HMC1. Nature of the data set: Antiinflammatory activity in HMC1 cells assessed as suppression of PMACI-induced TNF-alpha mRNA expression pretreated for 30 mins followed by addition of PMACI incubated for 6 hrs by qRT-PCR analysis. As to conditions: Homo sapiens.

Chain of RAC-alpha serine/threonine-protein kinase (Homo sapiens) (P31749 whole entry): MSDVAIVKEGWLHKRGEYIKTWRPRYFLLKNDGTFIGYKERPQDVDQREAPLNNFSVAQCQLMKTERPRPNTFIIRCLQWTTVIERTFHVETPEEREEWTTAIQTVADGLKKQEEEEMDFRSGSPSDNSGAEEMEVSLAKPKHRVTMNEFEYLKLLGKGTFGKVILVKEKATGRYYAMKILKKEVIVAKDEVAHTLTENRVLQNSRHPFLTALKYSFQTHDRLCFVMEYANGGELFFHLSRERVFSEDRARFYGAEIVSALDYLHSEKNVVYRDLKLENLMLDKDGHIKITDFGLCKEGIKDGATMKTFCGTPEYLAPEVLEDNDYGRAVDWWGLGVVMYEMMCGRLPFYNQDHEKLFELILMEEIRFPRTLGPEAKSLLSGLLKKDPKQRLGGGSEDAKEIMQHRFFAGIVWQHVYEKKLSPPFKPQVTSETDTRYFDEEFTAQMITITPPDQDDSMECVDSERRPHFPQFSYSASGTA

`O=C(/C=C/c1ccc(O)c(O)c1)O[C@@H](C(=O)O)[C@@H](OC(=O)/C=C/c1ccc(O)c(O)c1)C(=O)O` [CICHORIC ACID]: the Activity result in data set [1], in data set [2], in data set [3], in data set [4], in data set [5] and in data set [6] was “Non-toxic” throughout. Besides, the Activity result in [16], in data set [18], in data set [19], in data set [20], in data set [21] and in [22] was “Dose-dependent effect” each time. Further, the outcome in data set [7], in data set [12] and in data set [17] was Active. Also, the inhibition entry in data set [8], in data set [9] and in data set [10] was “inactive” each time. Besides, the inhibition entry in [11], in data set [13], in [14] and in data set [15] was “Active” each time.

Source of the values: ChEMBL document CHEMBL3758130, “Effect of Chicoric Acid on Mast Cell-Mediated Allergic Inflammation in Vitro and in Vivo” (J Nat Prod, 2015).
